{"source": "patent US6046177A", "about": "“Sulfoalkyl ether cyclodextrin based controlled release solid pharmaceutical formulations” (Cydex, Inc., priority 1999, dated 2000)", "key": {"[1]": {"details": "glibomuride-β-cyclodextrin complex vs. physical mixture; cited from earlier work"}, "[2]": {"experiment": "Release of methylprednisolone from tablets with […] RS/RL coating without pore forming agent (FIG. 15)", "type": "physicochemical", "details": "Eudragit RS:RL 9 to 1, approximately 5 wt.% coating", "excerpt": "As previously mentioned, it is not required that a pharmaceutical formulation according to the invention comprise a coated core wherein the coat comprises a film forming agent and a pore forming agent. […] In this formulation, the coat comprises a combination of Eudragit™ RS and Eudragit™ RL in a 9 to 1 weight ratio and the coating on the core of the tablet comprises approximately 5 wt.% of the total weight of the tablet. Accordingly, the present invention also provides controlled release pharmaceutical formulations consisting essentially of a core surrounded by a coat which comprises a film forming agent wherein the coat controls the rate of delivery of the drug even absent a pore forming agent in the coating.\nThe above formulation was prepared by first reducing the particle size of the SBE7 -βCD with a wedgewood mortar and pestle and then passing the powder through a 100 mesh screen. The sodium stearyl fumarate was also sieved through a 100 mesh screen prior to use. The SBE7 -βCD and MP were blended together geometrically in a glass mortar. The CEOLUS™, SUPERTAB™, PRUV™ components were then added in order in sequential steps while mixing. Tablets weighing approximately 250 mg each were compressed by hand on a Stokes B2 tablet press using 7 mm standard cup concave toolings. The tablets were compressed to a hardness of approximately 14 kp. […]"}, "[3]": {"experiment": "In vitro release of methylprednisolone and SBE7 β-CD from tablets (USP apparatus II)", "type": "physicochemical", "description": "The MP and SBE7 β-CD (present in a 1:7 molar ratio) along with a pharmaceutical carrier were compressed into a solid core which was spray coated with a mixture of ethylcellulose, PEG3350, PEG400 and ethanol to form a 140 μm thick film coating around the solid core. The dissolution profile was determined using USP dissolution apparatus II (100 rpm, 37° C.) and an HPLC assay for methylprednisolone (MP). […] The first formulation, indicated in FIG. 1 by the hollow circles, contains the separately preformed MP-SBE7 β CD freeze-dried complex. The second formulation, indicated by the filled in circles, contains a major portion of uncomplexed MP as a physical mixture with SBE7 β-CD. The third formulation, indicate by the squares, contains a physical mixture of lactose, fructose and MP.\nThe tablet core was prepared with a 1/7 molar ratio of methylprednisolone/(SBE)7 -β-CD. This ratio was calculated using the previously determined binding constant in order to have sufficient (SBE)7 -β-CD in the tablet core to solubilize all the methylprednisolone present. […] The tablet core consisted of either the methylprednisolone-(SBE)7-β-CD complex or the physical mixture of the two compounds. The complex was prepared by freeze drying a methylprednisolone-(SBE)7 -β-CD solution (5-15% in (SBE)7-β-CD). Non (SBE)7 -β-CD containing tablets were also prepared. They consisted of a 1/7 ratio of methylprednisolone to a 50:50 (w/w) mixture of fructose and lactose (Fischer Scientific, N.J.). The mixtures were ground in a mortar and sieved through a 200 mesh (75 μm) screen under low humidity conditions. The mixtures were stored in a dessicator when not used. Tablets of around 150 mg were compressed into the dissolution die using a Carver Laboratory Press (Fred S. Carver Inc., N.J.) at 1 ton during 1 min.\nThe coating formulation was prepared by mixing 4.5% of ethylcellulose (Ethocel Standard 10 Premium, Dow Chemicals, Mich.) with an equivalent amount of poly(ethylene glycol) 3350 (PEG 3350, Sigma, MO). 0.9% of PEG 400 (Sigma, MO) and 90.1% of absolute ethanol were added to the mixture. The dispersion was shaken and sonicated until complete dissolution of the solid components. The coating solution was air sprayed (Airbrush, Paasche) on a Teflon surface under constant air flow (40° C.). At the end of the spraying, the membranes were dried under the 40° C. air flow for 5 min. They were then left at room temperature during 24 hours. The membranes were peeled off the Teflon surface, checked for cracks and flaws under a light microscope (X70) and their thickness was measured using a micrometer (Ames, Mass.). The membranes were then secured on the dissolution die containing the tablet, with the face which was sprayed on the Teflon in contact with the tablet surface.\nThe release studies were realized by placing the dissolution die in a USP dissolution apparatus II (Vanderkamp 600, VanKel Industries Inc.) containing 350 ml of water at 37° C., 100 rpm. Samples were collected at various time points. The 100% release was determined by removing the membrane from the die and allowing the drug dissolution to be complete."}, "[4]": {"experiment": "Release of testosterone from osmotic pumps", "type": "physicochemical", "details": "osmotic pump with (SBE)7m -β-CD vs. sugar mixture or HP-β-CD; FIG. 25", "description": "For the preparation of cores, physical mixtures of TS with (SBE)7m -β-CD, HP-β-CD or sugar (physical mixture of lactose and fructose, 1/1) each containing 10 mg TS were compressed at 1 ton/cm^2 for 60 sec using a Carver™ Laboratory Press with a 6.35 mm flat faced punch. The molar ratios of TS to (SBE)7m -β-CD in the physical mixtures ranged from 1:1 to 1:1.43 and that in the physical mixture with HP-β-CD ranged from 1:1 to 1:1.79. The physical mixtures of TS with the β-CD derivatives or sugar were prepared using a mortar and a pestle. The compressed tablet core was placed in a tablet die as described above. […]\nThe dissolution and release rates of TS from core tablets (no membrane covering) or the osmotic pump devices (core tablets covered by a semipermeable membrane) were measured using a USP apparatus utilizing the paddle method. […] The amount of each osmotic pump agent, (SBE)7m -β-CD, HP-β-CD and sugar, released from the OPT was calculated by difference from the weight of the total ingredients released and the weight of the remaining released components at each sampling time in the study. […] The weight of the released osmotic agent was measured as a residual weight after evaporating and vacuum drying a 200 ml solution sample for 12 hr at 60° C. […]"}, "[5]": {"experiment": "In vitro release of testosterone from tablets (USP apparatus II)", "type": "physicochemical", "details": "1:1 molar TST:SBE7 β-CD; sorbitol/PEG 400/cellulose acetate film; FIG. 8", "description": "(FIG. 8) The solid core of the tablet comprised a 1:1 molar ratio of TST and SBE7 β-CD. The film coating of this tablet comprised sorbitol, PEG 400 and cellulose acetate. The release profiles of the physical mixture and complex formulation were compared to that of a baseline TST/fructose-lactose formulation.\nThe tablet core was prepared with a 1/1 molar ratio of testosterone/(SBE)7 -β-CD. The tablet core consisted of either the testosterone-(SBE)7 -β-CD complex or the physical mixture of the two compounds. The complex was prepared by freeze-drying a testosterone-(SBE)7 -β-CD solution (5-15% in (SBE)7m -β-CD). Non (SBE)7 -β-CD containing tablets were also prepared. […]\nSemi-permeable Membrane Preparation The coating formulation was prepared by dissolving 1.0% of sorbitol (Sigma, MO) in 3.7% of double distilled water and 0.4% of PEG 400 (Sigma, MO). […] The membranes were peeled off the surface, checked for cracks and flaws under a light microscope (X70) and their thickness was measured using a Micrometer (Ames, Mass.). […]\nThe release studies were realized by placing the dissolution die in a USP dissolution apparatus II (Vanderkamp 600, VanKel Industries Inc.) containing 900 ml of water at 37° C., 100 rpm. […] The 100% release was determined by removing the membrane from the die and allowing the drug dissolution to be complete. The samples were analyzed by HPLC for testosterone concentration."}}}
{"molecule": "Cc1ccc(S(=O)(=O)NC(=O)NC2C3CCC(C)(C2O)C3(C)C)cc1", "note": "(stereo not shown) [glibomuride]", "values": [{"measurement": "bioavailability of complex vs. physical mixture", "setting": "[1]", "value": "two to three fold better"}]}
{"molecule": "C[C@H]1C[C@@H]2[C@H]([C@@H](O)C[C@@]3(C)[C@H]2CC[C@]3(O)C(=O)CO)[C@@]2(C)C=CC(=O)C=C12", "note": "[methylprednisolone]", "values": [{"measurement": "release of MP, coat without pore forming agent", "setting": "[2]", "value": "MP is released from a tablet formulation"}, {"measurement": "release profile, MP vs. SBE7 β-CD", "setting": "[3]; 140 μm film, FIG. 2a, 2b", "value": "substantially the same release profiles"}, {"measurement": "release profile, physical mixture vs. freeze dried complex", "setting": "[3]; 200 μm film, FIG. 3a, 3b", "value": "a slight difference was noted in the release profiles of the physical mixture versus the freeze dried complex"}, {"measurement": "release profile, physical mixture vs. preformed complex", "setting": "[3]; MP:SBE7 β-CD 1:7 molar, 140 μm ethylcellulose/PEG film, FIG. 1, 2", "value": "release profile similar to or substantially similar to the former"}, {"measurement": "effect of MP/SBE7 β-CD ratio on release", "setting": "[3]; film coated tablets, ratios 1/10, 1/7, 1/3, FIG. 7a-7d", "value": "decreasing the relative amount of SBE7 β-CD decreases the observed release profile for MP"}, {"measurement": "release profile, physical mixture vs. complex, uncoated core", "setting": "[3]; no film, FIG. 6", "value": "The physical mixture exhibits substantially the same release profiles as the complex"}, {"measurement": "release characteristics, physical mixture vs. freeze dried complex", "setting": "[3]; ratios 1/10, 1/7, 1/3, FIG. 7a-7d", "value": "substantially the same release characteristics"}]}
{"molecule": "C[C@]12CC[C@H]3[C@@H](CCC4=CC(=O)CC[C@@]43C)[C@@H]1CC[C@@H]2O", "note": "[testosterone]", "values": [{"measurement": "release from osmotic pumps", "setting": "[4]", "value": "released a greater amount of TS and at a more acceptable rate than the osmotic pumps containing the sugar mixture or HP-β-CD"}, {"measurement": "release profile, physical mixture vs. freeze dried complex", "setting": "[5]", "value": "exhibited the same release profile as the respective freeze dried mixture"}]}
